# Experimental data reported in patent US11622955B2, “Sigma-1 receptor agonist systolic blood pressure therapy” (ANAVEX LIFE SCIENCES CORP., priority 2017, dated 2023).
# Counter-ions that a name gives are not always drawn.
# How the values were obtained:
# [1] = Example 3: trough systolic blood pressure, combination with a thiazine diuretic; assay type: in vivo, human; details: person
# Experimental: Effect of 10 mg Once Daily Dosage A2-73 Combination Treatment with a Thiazine Diuretic.
# The subject continues on the chlorothalidone and is started on oral A2-73 at a daily dosage of 10 mg/day for a period of 25 days. Their trough systolic blood pressure is then measured at 135 mg Hg and maintained indefinitely with the combined chlorothalidone and daily oral dose of 10 mg of A2-73.
# [2] = Example 2: maximum diurnal systolic blood pressure, combination with a β1-selective agent; assay type: in vivo, human; details: person
# Description: “Maximum diurnal” systolic or diastolic BP is a measure of highest systolic or diastolic blood pressure recorded in a 24-hour period. Without being bound by any particular theory, it is believed that a maximal diurnal BP reflects the peak of the natural diurnal blood pressure cycle, typically occurring in the morning, for example between about 5 am and about 11 am. Commonly, a second peak occurs in the evening, for example between about 5 pm and 10 pm. Such a bimodal waveform diurnal ambulatory BP pattern may be especially characteristic of resistant hypertension.
# Effect of 50 mg Once Daily Dosage A2-73 Combination Treatment with a β1-Selective Agent.
# The subject continues on the metoprolol tartrate, and is started on oral A2-73 at a daily dosage of 50 mg/day for a period of 25 days. Their maximum diurnal systolic blood pressure is then measured at 135 mg Hg and maintained indefinitely with the combined metoprolol tartrate and daily oral dose of 50 mg of A2-73.
# [3] = cited from earlier work
# [4] = Example 1: 24-hour ambulatory systolic blood pressure in a patient with high SBP; assay type: in vivo, human; details: person
# Experimental: Another measure of blood pressure is “24-hour ambulatory” blood pressure. A “24-hour ambulatory” systolic or diastolic BP is an average of systolic or diastolic measurements taken repeatedly in the course of a 24-hour period, in an ambulatory subject.
# Effect of 5 mg and 30 mg Once Daily dosage A2-73.
# The dose of A2-73 is then increased so that the subject is administered A2-73 daily, at a dosage of 30 mg/day for a period of 25 days. His 24-hour ambulatory systolic blood pressure is then measured at 135 mg Hg and maintained indefinitely with the daily oral dose of 30 mg of A2-73.
# [5] = Phase IIa clinical trial in Alzheimer's disease patients, post-hoc evaluation of systolic blood pressure; assay type: in vivo, human
# Experimental: FIG. 1 is a graph of systolic blood pressure readings of 32 human patients of both sexes, across multiple visits, adjusted for time of BP measurement, gender, age, body mass index, and previous or concurrent use of antihypertensive medication.
# BPs were measured at four time points during the study period: 1) the day of screening for enrollment, 2) day one of treatment with either oral or intravenous medication (BP measurements were obtained prior to medication administration), 3) day 25 of treatment (when patients crossed over to receive whichever formulation, oral or intravenous, they had not received previously), and 4) day 36 (conclusion of the PART A of the Phase IIa study). Statistical analyses included paired t-testing comparing changes in BPs across each measurement, as well as multivariable linear mixed effects modeling (adjusted for time of measurement, gender, age, body mass index, and use of antihypertensive medication) to account for within-individual repeated measurements over time.
# Thirty-two Alzheimer's disease patients took part in the phase IIa trial. Mean age was 69.5 (standard deviation [SD] 9.8) years, 60% were male, mean body mass index was 26.5 (SD 3.9) kg/m2, and 50% were on antihypertensive medication at the time of screening. […] In multivariable adjusted models (FIG. 1), there was no significant difference in SBP between the first and second readings (p=0.211). […] Of note, no patients reported any changes in their antihypertensive regimen while taking part in the trial.
# [6] = single oral dose, healthy male volunteers
smiles,measurement,setting,value
"NS(=O)(=O)c1cc(C2(O)NC(=O)c3ccccc32)ccc1Cl (racemic) [chlorothalidone, (RS)-2-Chloro-5-(1-hydroxy-3-oxo-2,3-dihydro-1H-isoindol-1-yl)benzene-1-sulfonamide, reference compound]",trough systolic blood pressure,"[1]; chlorothalidone 25 mg orally once a day, before A2-73",150 mg Hg
"COCCc1ccc(OCC(O)CNC(C)C)cc1 (racemic) [metoprolol tartrate, (RS)-1-[4-(2-Methoxyethyl)phenoxy]-3-[(propan-2-yl)amino]propan-2-ol, reference compound]",maximum diurnal systolic blood pressure,"[2]; metoprolol tartrate 50 mg twice daily, before A2-73",150 mg Hg
"CN(C)CC1CCOC1(c1ccccc1)c1ccccc1.Cl (centres unmarked) [A2-73, tetrahydro-N,N-dimethyl-2,2-diphenyl-3-furanmethanamine hydrochloride]",maximum diurnal systolic blood pressure,"[2]; oral A2-73 50 mg/day for 25 days, combined with continued metoprolol tartrate 50 mg twice daily",135 mg Hg
same,trough systolic blood pressure,"[1]; oral A2-73 10 mg/day for 25 days, combined with continued chlorothalidone 25 mg once a day",135 mg Hg
same,observed adverse events,[3]; at the highest doses,moderate and reversible dizziness and headache
same,"blood pressure, resting heart rate, vital signs and 12-lead ECG changes","[3]; in vivo, po",did not show any clinically relevant or dose-dependent changes
same,pharmacokinetics,"[3]; in vivo, po",suitable for daily oral dosing
same,serious adverse events,"[3]; single ascending oral dose, 22 healthy male volunteers",No serious adverse events occurred
same,maximum tolerable dose,[3]; [6],55 mg
same,minimum intolerable dose,[3]; [6],60 mg
same,safety and tolerability of ascending single oral doses,"[3]; single oral doses of 1, 10, 30, 40, 50 and 55 mg, healthy subjects",safe and well tolerated
same,24-hour ambulatory systolic blood pressure,[4]; 5 mg A2-73 orally once a day,150 mg Hg
same,24-hour ambulatory systolic blood pressure,[4]; A2-73 30 mg/day oral for 25 days,135 mg Hg
same,tolerability in human patients,[5]; Phase I and Phase IIa clinical trials,well tolerated
same,"change in SBP, first reading vs other subsequent readings (day 25, day 36)","[5]; multivariable adjusted models (FIG. 1), p=0.048 and 0.008",significant decline in SBP
same,"change in SBP, second measurement (day one, pre-dose) vs all subsequent measurements","[5]; unadjusted analyses, p=0.120 and 0.972 (day 25, day 36)",no significant decline
same,"change in SBP, first measurement vs all subsequent measurements","[5]; unadjusted analyses, paired t-test, p=0.007, 0.001 and 0.007, 32 Alzheimer's disease patients, oral or intravenous",significant decline in SBP
